What was measured:
[1] = test system: bMON14272-pFastbac Dual infected SF21 cells; test: Baculovirus virion suppression test, end point dilution assay, negative control virus (Example 2); format: cell-based; details: addition of 0.5 μM RG-102240, SF21 cells, 72 hours, FIG. 7B right
Excerpt: FIG. 7: Example 2. A) Generation of composite baculovirus DNA containing expression cassettes X, Y, and Z as described in FIG. 6. Baculovirus DNA bMON14272 (left) contains expression cassette Z encoding native vp80 protein. The transfer vector pE2 (right) contains expression cassettes X and Y encoding the ecdysone activator protein and shRNA, respectively. In transfer vector pE2, direction of transcription 5′ to 3′ for expression cassettes X and Y is indicated by arrows. Promoter sequences pe38 for ecdysone activator and ie-2 minimal for shRNA are indicated as are the DNA binding sites for ecdysone activator protein. Fusion of the transfer vector pE2 and bMON14272 is carried out by Tn7 transposition (indicated by the dashed cross). B) Comparison of budded infectious virus production from inducible bMON14272-pE2 (left) and non-inducible bMON14272-pDual (right) in the presence and absence of inducer molecule RG-102240. Baculovirus infected SF21 cells are incubated for 72 hours in the presence, or absence of 0.5 μM RG-102240 (indicated by + or −, bottom). […]
(§1) Quantification of effectiveness of RG-102240-mediated suppression of generation of baculovirus virion through shRNA targeting of the essential virus capsid protein vp80 as described above is carried out by comparing the results of the end point dilution assay with and without RG-102240-mediated expression of shRNA. […]

[2] = test system: bMON14272-pE2 infected SF21 cells; test: Baculovirus virion suppression test, end point dilution assay (Example 2); format: cell-based
Excerpt: FIG. 7: Example 2. A) Generation of composite baculovirus DNA containing expression cassettes X, Y, and Z as described in FIG. 6. Baculovirus DNA bMON14272 (left) contains expression cassette Z encoding native vp80 protein. The transfer vector pE2 (right) contains expression cassettes X and Y encoding the ecdysone activator protein and shRNA, respectively. In transfer vector pE2, direction of transcription 5′ to 3′ for expression cassettes X and Y is indicated by arrows. Promoter sequences pe38 for ecdysone activator and ie-2 minimal for shRNA are indicated as are the DNA binding sites for ecdysone activator protein. Fusion of the transfer vector pE2 and bMON14272 is carried out by Tn7 transposition (indicated by the dashed cross). B) Comparison of budded infectious virus production from inducible bMON14272-pE2 (left) and non-inducible bMON14272-pDual (right) in the presence and absence of inducer molecule RG-102240. Baculovirus infected SF21 cells are incubated for 72 hours in the presence, or absence of 0.5 μM RG-102240 (indicated by + or −, bottom). […] S.E.M of three measurements is indicated by dark bars on the top of the graphs.
Other algorithms may be analogously used. […] Expression cassette Y is under control of the ie2 minimal promoter (Protein Expression and Purification 42, 236-245).
Baculovirus virion suppression tests are carried out as follows. 10 milliliters of SF21 cells in suspension culture (Nature Methods 3, 1021-1032) at density 0.5×10^6 cells/ml are infected at multiplicity of infection (M.O.I) of 1.0 with either bMON14272-pE2 or bMON14272-pFastbac Dual initial transfection virus either in the presence, or absence of 0.5 μM RG-102240 (FIG. 7B). […]
as §1

[3] = induced with 0.5 μM RG-102240, SF21 cells, 72 hours

CCc1c(OC)cccc1C(=O)NN(C(=O)c1cc(C)cc(C)c1)C(C)(C)C [RG-102240]
effect on baculovirus virion production [1]: no statistically significant effect | reduction of virus titers relative to prior art systems (bMON14272-pFastbac Dual) [2, 3]: more than three fold | reduction of virus titers relative to uninduced bMON14272-pE2 [2, 3]: more than three fold | levels of budded virus production (infectious virus titre) ([2]; presence vs absence of 0.5 μM RG-102240, SF21 cells, M.O.I 1.0, 72 hours, FIG. 7B left): significantly reduced

Reference: patent US20140287460A1, “PRODUCTION OF R[…] IN INSECT CELLS USING A B[…]” (GBIOTECH SARL, priority 2011, published 2014)
